Measured values taken from US9474790B2, “Stable, protracted GLP-1/glucagon receptor co-agonists for medical use” (Novo Nordisk A/S, priority 2013, dated 2016).
Numbered stars: 1 amine (or outer) side, 2 acyl side, 3 side chain; on linkers, the order of the positions; unused ones are H or OH. Square brackets hold non-standard residues; d marks the D form. Side chains are listed from the residue outwards. Peptide text beside a SMILES is read from it. * marks the point of attachment. C18 diacid = O=C(O)CCCCCCCCCCCCCCCCC(=O)*; γGlu = O=C(O)[C@H](CCC(=O)[*:2])N[*:1]; AEEA = NCCOCCOCC(=O)O; Aib = CC(C)(N)C(=O)O

Assay: in vivo
Set-up: species or system c57/BL6 mice
Conditions: male, c57/BL6, mouse, sc, 10 nmol/kg
Procedure: The purpose of this assay was to assess the pharmocokinetic profiles of the glucagon derivatives of the invention in mice. The pharmacokinetic profile of glucagon-GLP1 co-agonists was tested in normal male c57/BL6 mice (approximately body weight: 30 grams), in a sparse sampling design with for example 3 mice represented at each time point (for example: t=0.25, 0.5, 1, 3, 6, 10, 24, 30 and 48 hours). The compound was dosed as a single subcutaneous dose of 10 nmol/kg at t=0. The plasma levels of the glucagon-GLP1 co-agonist compounds were determined using an ELISA/LOCI assay (see Example 80 herein). Pharmacokinetic calculations such as half-life (T1/2) maximum concentration (Cmax) and time for maximum concentration (Tmax) of the compounds were determined using the PC based software, Phoenix (WinNonLin version 6.3 from Pharsight, Certara). Samples were analysed for peptide levels using Luminescence Oxygen Channeling Immunoassay (LOCI). The donor beads were coated with streptavidin. Acceptor beads are conjugated with a monoclonal antibody specific to gGlu in the linker (NN454-1F31) while the second monoclonal antibody (1F120) specific for glucagon was biotinylated. Three reactants were combined with the analyte and formed a two-sited immuno-complex. Illumination of the complex released singlet oxygen atoms from the donor beads. They were channeled into the acceptor beads and triggered chemiluminescence which was measured in the EnVision plate reader. The amount of emitted light is proportional to the concentration of peptide. One μL sample/calibrator/control was applied to the wells of 384-well LOCI plates followed by a 15 μL mixture of the antibody-coated acceptor beads (0.5 μg/well) and the biotinylated antibody. The plates were incubated over night at 21-22° C. Following incubation, 30 μL of the streptavidin-coated donorbeads (2 μg/well) was added to each well and incubated for 30 minutes at 21-22° C. The plates were read in an Envision plate reader at 21-22° C. with a filter having a bandwidth of 520-645 nm after excitation by a 680 nm laser. The total measurement time per well was 210 ms including a 70 ms excitation time.

Cmax	Tmax	half-life	Structure (SMILES)
24.4 nM	3 h	14 h	CC(C)C[C@H](NC(=O)[C@H](CC(C)C)NC(=O)[C@H](Cc1c[nH]c2ccccc12)NC(=O)[C@H](CCC(N)=O)NC(=O)[C@@H](NC(=O)[C@H](Cc1ccccc1)NC(=O)[C@H](CCC(=O)O)NC(=O)[C@H](CCCNC(=N)N)NC(=O)[C@H](C)NC(=O)[C@H](CCCNC(=N)N)NC(=O)[C@H](CCCNC(=N)N)NC(=O)[C@H](CO)NC(=O)[C@H](CC(=O)O)NC(=O)[C@H](CC(C)C)NC(=O)[C@H](Cc1ccc(O)cc1)NC(=O)[C@H](CCCCN)NC(=O)[C@H](CO)NC(=O)[C@H](CC(C)C)NC(=O)[C@H](CC(=O)O)NC(=O)[C@H](CO)NC(=O)[C@@H](NC(=O)[C@H](Cc1ccccc1)NC(=O)[C@@H](NC(=O)CNC(=O)[C@H](CCC(N)=O)NC(=O)C(C)(C)NC(=O)[C@@H](N)Cc1c[nH]cn1)[C@@H](C)O)[C@@H](C)O)C(C)C)C(=O)N[C@@H](CC(N)=O)C(=O)N[C@@H](CCCCNC(=O)CC[C@H](NC(=O)CC[C@H](NC(=O)COCCOCCNC(=O)COCCOCCNC(=O)CC[C@H](NC(=O)CCCCCCCCCCCCCCCCC(=O)O)C(=O)O)C(=O)O)C(=O)O)C(N)=O [Example 12, N^ε29-[(4S)-4-carboxy-4-[[(4S)-4-carboxy-4-[[2-[2-[2-[[2-[2-[2-[[(4S)-4-carboxy-4-(17-carboxyheptadecanoylamino)butanoyl]amino]ethoxy]ethoxy]acetyl]amino]ethoxy]ethoxy]acetyl]amino]butanoyl]amino]butanoyl]-[Aib2,Leu10,Arg20,Glu21,Leu27,Lys29]-Glucagon amide] (H-H[Aib]QGTFTSDLSKYLDSRRAREFVQWLLNK([γGlu-γGlu-AEEA-AEEA-γGlu-C18 diacid])-NH2)
45 nM	3 h	23 h	CC(C)C[C@H](NC(=O)[C@H](CC(C)C)NC(=O)[C@H](Cc1c[nH]c2ccccc12)NC(=O)[C@H](CCC(N)=O)NC(=O)[C@@H](NC(=O)[C@H](Cc1ccccc1)NC(=O)[C@H](CCC(=O)O)NC(=O)[C@H](CCC(N)=O)NC(=O)[C@H](C)NC(=O)[C@H](C)NC(=O)[C@H](CCCCN)NC(=O)[C@H](CO)NC(=O)[C@H](CC(=O)O)NC(=O)[C@H](CC(C)C)NC(=O)[C@H](Cc1ccc(O)cc1)NC(=O)[C@H](CCCCN)NC(=O)[C@H](CO)NC(=O)[C@H](CC(C)C)NC(=O)[C@H](CC(=O)O)NC(=O)[C@H](CO)NC(=O)[C@@H](NC(=O)[C@H](Cc1ccccc1)NC(=O)[C@@H](NC(=O)CNC(=O)[C@H](CCC(N)=O)NC(=O)C(C)(C)NC(=O)[C@@H](N)Cc1c[nH]cn1)[C@@H](C)O)[C@@H](C)O)C(C)C)C(=O)N[C@@H](CC(N)=O)C(=O)N[C@@H](CCCCNC(=O)CC[C@H](NC(=O)CC[C@H](NC(=O)COCCOCCNC(=O)COCCOCCNC(=O)CC[C@H](NC(=O)CCCCCCCCCCCCCCCCC(=O)O)C(=O)O)C(=O)O)C(=O)O)C(N)=O [Example 8, N^ε29-[(4S)-4-carboxy-4-[[(4S)-4-carboxy-4-[[2-[2-[2-[[2-[2-[2-[[(4S)-4-carboxy-4-(17-carboxyheptadecanoylamino)butanoyl]amino]ethoxy]ethoxy]acetyl]amino]ethoxy]ethoxy]acetyl]amino]butanoyl]amino]butanoyl]-[Aib2,Leu10,Lys17,Ala18,Glu21,Leu27,Lys29]-Glucagon amide] (H-H[Aib]QGTFTSDLSKYLDSKAAQEFVQWLLNK([γGlu-γGlu-AEEA-AEEA-γGlu-C18 diacid])-NH2; N-terminus assumed)
